The test system of one series is Leishmania donovani. The experiment in a line: Antileishmanial activity against Leishmania donovani infected in human THP-1 cells assessed as growth inhibition by intramacrophage assay. It counts as functional, organism-based.
Series [1] can be described thus: Cytotoxicity against human THP-1 cells assessed as cell growth inhibition. It counts as toxicity, cell-based.
A short description of series [2]: Selectivity index, ratio of CC50 for cytotoxicity against human THP-1 cells to IC50 for antileishmanial activity against Leishmania donovani infected in human THP-1 cells. The series is classed as toxicity, cell-based. As to conditions: read-out: Ratio CC50/IC50.
Series [3] in a line: Cytotoxicity against human HepG2 cells assessed as cell growth inhibition at 100 uM. The series is classed as toxicity, cell-based. The note with it: read-out: Activity.

Turning to `COc1ccc(-c2cnc(NC(=O)c3ccco3)n2C)cc1`, in the series on Leishmania donovani, the IC50 amounted to 23 µM. Also, in series [1], the CC50 was more than 100 µM. Further, the selectivity ratio in series [2] was more than 4.3. Besides, the inhibition at 100 µM in series [3] is less than 50%.
On to `COc1ccc(-c2cnc(NC(=O)c3ccccc3C#N)n2C)cc1`, for which, in the series on Leishmania donovani, the IC50 stood at 14 µM. Further, in series [1], the CC50 is more than 100 µM. In addition, in series [2], the selectivity ratio was more than 7.1. In series [3], the inhibition at 100 µM is less than 50%.
For `COc1ccc(-c2cnc(NC(=O)c3cccnc3)n2C)cc1`, the IC50 in the series with Leishmania donovani was more than 100 µM. For the same compound, the CC50 in series [1] was more than 100 µM. In series [2], the selectivity ratio was more than 1. Moreover, the inhibition at 100 µM in series [3] was less than 50%.
Turning to `COc1ccc(-c2cnc(NC(=O)c3ccc(Br)cc3)n2C)cc1`, the IC50 in the series with Leishmania donovani was more than 100 µM. Further, the CC50 in series [1] is more than 100 µM. The selectivity ratio in series [2] was more than 1. Moreover, in series [3], the inhibition at 100 µM is less than 50%.
With `COc1ccc(-c2cnc(NC(=O)Cc3ccccc3)n2C)cc1`, the IC50 in the series with Leishmania donovani was 25 µM. The CC50 in series [1] is more than 100 µM. For the same compound, the selectivity ratio in series [2] is more than 4. Besides, the inhibition at 100 µM in series [3] was less than 50%.
Taken in the same sequence, the figures for `CCn1c(-c2ccc(OC)cc2)cnc1NC(=O)c1ccc(F)cc1` were more than 100 µM, more than 100 µM, more than 2.6 and less than 50%.
Taken in the same sequence, the figures for `COc1cccc(-c2cnc(NC(=O)c3ncc[nH]3)n2C)c1` were 8.1 µM, more than 100 µM, more than 12 and less than 50%.
Taken in the same sequence, the figures for `COc1ccc(-c2cnc(NC(=O)c3ccccc3C)n2C)cc1` were 65 µM, more than 100 µM, more than 1.5 and less than 50%.
As for `COc1ccc2nc(NC(=O)c3ccc(F)cc3)n(C)c2c1`, the IC50 in the series on Leishmania donovani worked out at 44 µM. Besides, the CC50 in series [1] was more than 100 µM. The selectivity ratio in series [2] was more than 2.3. Further, in series [3], the inhibition at 100 µM is less than 50%.
On to `COc1ccc(-c2cnc(NC(=O)c3ccc(C)cc3)n2C)cc1`, for which the IC50 in the series on Leishmania donovani worked out at 29 µM. Moreover, the CC50 in series [1] is more than 100 µM. Moreover, in series [2], the selectivity ratio was more than 3.4.
Taken in the same sequence, the figures for `Cn1c(-c2ccccc2)cnc1NC(=O)c1ccccc1Cl` were 5 µM, more than 50 µM and more than 10.
`Cc1ccccc1-c1cnc(NC(=O)c2ccc(F)cc2)n1C`: in the series on Leishmania donovani, the IC50 was found to be 3.9 µM. Further, in series [1], the CC50 was more than 50 µM. In series [2], the selectivity ratio was more than 13.
Taken in the same sequence, the figures for `Cn1c(-c2ccc([N+](=O)[O-])cc2)cnc1NC(=O)c1ccc(F)cc1` were more than 50 µM, more than 50 µM and more than 1.
Taken in the same sequence, the figures for `COc1ccc(-c2cnc(NC(=O)c3ccc(F)cc3)n2C(C)C)cc1` were more than 50 µM, more than 50 µM and more than 1.
For the compound `COc1ccc(-c2cnc(NC(=O)c3ccc(F)cc3)[nH]2)cc1`, the IC50 with Leishmania donovani worked out at 38 µM. Besides, the CC50 in series [1] is more than 100 µM. In series [2], the selectivity ratio is more than 8.3. In addition, the inhibition at 100 µM in series [3] was less than 50%.
For the compound `Cc1cccc(C(=O)Nc2ncc(-c3ccccc3)n2C)c1`, in the series on Leishmania donovani, the IC50 is 3.5 µM. Besides, in series [1], the CC50 is more than 50 µM. Moreover, in series [2], the selectivity ratio was more than 14.
For the compound `COc1ccc(-c2cnc(NC(=O)c3ccc(F)cc3)n2Cc2ccccc2)cc1`, the IC50 in the series with Leishmania donovani was more than 100 µM. Also, the CC50 in series [1] is more than 100 µM. Also, the selectivity ratio in series [2] was found to be 1.4. The inhibition at 100 µM in series [3] was less than 50%.
On to `COc1ccc(-c2cnc(NC(=O)c3cccc(Br)c3)n2C)cc1`, for which the IC50 in the series with Leishmania donovani is more than 100 µM. In series [1], the CC50 was more than 100 µM. In addition, the selectivity ratio in series [2] was more than 1. The inhibition at 100 µM in series [3] is less than 50%.
For the compound `Cc1ccc(-c2cnc(NC(=O)c3ccc(F)cc3)n2C)cc1`, the IC50 in the series on Leishmania donovani was found to be 13 µM. In addition, in series [1], the CC50 came to 60 µM. In addition, the selectivity ratio in series [2] was 4.5.
As for `COc1ccc(-c2cnc(NC(=O)c3ccccc3Br)n2C)cc1`, the IC50 in the series on Leishmania donovani was more than 100 µM. Also, the CC50 in series [1] is more than 100 µM. For the same compound, the selectivity ratio in series [2] is more than 1.
Take `Cn1c(-c2ccc(Cl)cc2)cnc1NC(=O)c1ccc(F)cc1`: the IC50 with Leishmania donovani stood at 4.9 µM. The CC50 in series [1] was 37 µM. Also, the selectivity ratio in series [2] came to 7.6.
As for `Cn1c(-c2cccc(Cl)c2)cnc1NC(=O)c1ccc(F)cc1`, the IC50 in the series on Leishmania donovani was determined as 22 µM. In addition, the CC50 in series [1] is more than 50 µM. In series [2], the selectivity ratio is more than 2.3.
For `Cc1ccccc1C(=O)Nc1ncc(-c2ccccc2)n1C`, in the series on Leishmania donovani, the IC50 was 57 µM. For the same compound, the CC50 in series [1] was more than 100 µM. For the same compound, the selectivity ratio in series [2] is more than 1.8. The inhibition at 100 µM in series [3] was less than 50%.
Turning to `Cn1c(-c2ccccc2)cnc1NC(=O)c1cccc(Br)c1`, the IC50 in the series on Leishmania donovani stood at 3.1 µM. In series [1], the CC50 is more than 50 µM. In addition, the selectivity ratio in series [2] is more than 16.
As to `CCC(=O)Nc1ncc(-c2ccc(OC)cc2)n1C`, in the series on Leishmania donovani, the IC50 was more than 100 µM. In series [1], the CC50 was more than 100 µM. In series [2], the selectivity ratio is more than 1.
With `Cn1c(-c2cccc(C#N)c2)cnc1NC(=O)c1ncc[nH]1`, the IC50 in the series on Leishmania donovani was more than 50 µM. In addition, in series [1], the CC50 was more than 50 µM. For the same compound, the selectivity ratio in series [2] was more than 1.
Take `Cn1c(-c2ccccc2)cnc1NC(=O)c1ccc(Br)cc1`: in the series with Leishmania donovani, the 50% inhibitory concentration (IC50) is 37 µM. Further, the CC50 in series [1] was more than 100 µM. The selectivity ratio in series [2] is more than 2.7.
For the compound `Cn1c(-c2cccc(C#N)c2)cnc1NC(=O)c1ccc(F)cc1`, the IC50 in the series on Leishmania donovani turned out to be 16 µM. Moreover, in series [1], the CC50 is more than 100 µM. In series [2], the selectivity ratio was more than 6.3.
`COc1ccc(CN(C)C(=O)NC(=O)c2ccc(F)cc2)cc1`: the half-inhibitory concentration (IC50) with Leishmania donovani is more than 50 µM. The CC50 in series [1] was more than 50 µM. Also, in series [2], the selectivity ratio is more than 1.
`COc1ccc(-c2ccnc(NC(=O)c3ccc(F)cc3)c2)cc1`: in the series with Leishmania donovani, the IC50 was more than 100 µM. Further, the half-maximal cytotoxic concentration (CC50) in series [1] was more than 100 µM. Further, the selectivity ratio in series [2] is more than 1.
Consider `COc1ccccc1-c1cnc(NC(=O)c2ncc[nH]2)n1C`, for which, in the series on Leishmania donovani, the IC50 was more than 50 µM. The CC50 in series [1] was more than 50 µM. Moreover, in series [2], the selectivity ratio is more than 1.
On to `COc1ccc(-c2cnc(NC(=O)c3ccccn3)n2C)cc1`, for which, in the series with Leishmania donovani, the IC50 is 13 µM. Besides, the CC50 in series [1] is more than 100 µM. For the same compound, the selectivity ratio in series [2] is more than 7.7.
Turning to `COc1ccc(C(=O)Nc2ncc(-c3ccc(OC)cc3)n2C)cc1`, the IC50 in the series on Leishmania donovani was more than 100 µM. Further, the CC50 in series [1] is more than 100 µM. Further, in series [2], the selectivity ratio was more than 1.
For the compound `COc1ccc(-c2cnc(NC(=O)c3ccccc3Cl)n2C)cc1`, the IC50 in the series on Leishmania donovani was 13 µM. Also, the CC50 in series [1] was more than 50 µM. Further, in series [2], the selectivity ratio is more than 3.8.
For the compound `COc1ccc(-c2cnc(NC(=O)c3cccc(O)c3)n2C)cc1`, in the series with Leishmania donovani, the IC50 worked out at 54 µM. Moreover, the CC50 in series [1] is more than 100 µM. Also, the selectivity ratio in series [2] was more than 1.9.
As to `O=C(Nc1ncc(-c2ccccc2)o1)c1ccc(Cl)cc1`, in the series on Leishmania donovani, the IC50 came out at 0.33 µM. For the same compound, the CC50 in series [1] came to 10 µM. For the same compound, the selectivity ratio in series [2] was found to be 30.
For `Cn1c(-c2ccccc2)cnc1NC(=O)c1cc(-c2ccccn2)[nH]n1` the same measures were 0.68 µM, more than 50 µM and more than 74.
Taken in the same sequence, the figures for `Cn1c(-c2ccccc2Cl)cnc1NC(=O)c1ncc[nH]1` were 5.2 µM, more than 50 µM and more than 9.6.
In the case of `COc1ccc(-c2cnc(NC(=O)c3ccccc3O)n2C)cc1`, the IC50 with Leishmania donovani is more than 100 µM. Also, the CC50 in series [1] is more than 100 µM. Moreover, the selectivity ratio in series [2] is more than 1. Besides, in series [3], the inhibition at 100 µM was less than 50%.
For the compound `Cn1c(-c2ccccc2)cnc1NC(=O)c1ccc(Cl)cc1`, in the series on Leishmania donovani, the IC50 came to 12 µM. In addition, the CC50 in series [1] is more than 100 µM. For the same compound, the selectivity ratio in series [2] was more than 8.3.
Turning to `Cn1c(-c2cccc(Br)c2)cnc1NC(=O)c1ccc(F)cc1`, in the series on Leishmania donovani, the IC50 is 5.4 µM. Moreover, the CC50 in series [1] was more than 50 µM. Also, the selectivity ratio in series [2] was more than 9.3.
As to `COc1ccc(-c2cnc(NC(=O)c3ccno3)n2C)cc1`, in the series with Leishmania donovani, the IC50 was more than 100 µM. Also, in series [1], the CC50 was more than 100 µM. Further, in series [2], the selectivity ratio is more than 1. Also, in series [3], the inhibition at 100 µM was less than 50%.
For `COc1ccc(-c2cnc(NC(=O)c3cccc(OC)c3)n2C)cc1`, the IC50 in the series on Leishmania donovani is more than 100 µM. In addition, the CC50 in series [1] was more than 100 µM. Besides, the selectivity ratio in series [2] was more than 1.
As to `Cn1c(-c2ccccc2Br)cnc1NC(=O)c1ccc(F)cc1`, the IC50 in the series on Leishmania donovani is more than 100 µM. For the same compound, in series [1], the CC50 was more than 100 µM. The selectivity ratio in series [2] was more than 1.
Turning to `Cn1cc(-c2ccccc2)nc1NC(=O)c1ccc(F)cc1`, in the series with Leishmania donovani, the IC50 is more than 50 µM. In series [1], the CC50 was more than 50 µM. Further, the selectivity ratio in series [2] was more than 1.
With `COc1ccc(-c2cnc(NC(=O)c3cccc(Cl)c3)n2C)cc1`, the IC50 in the series with Leishmania donovani was more than 10 µM. For the same compound, the CC50 in series [1] was more than 28 µM. In addition, the selectivity ratio in series [2] was more than 2.8.
For `COc1ccc(-c2cnc(NC(=O)c3cccc([N+](=O)[O-])c3)n2C)cc1`, the IC50 with Leishmania donovani is more than 100 µM. Besides, the CC50 in series [1] is more than 100 µM. Further, in series [2], the selectivity ratio was more than 1.
Regarding `COc1ccc(-c2cnc(NC(=O)c3ccccc3OC)n2C)cc1`, the IC50 in the series on Leishmania donovani came to 33 µM. Further, the CC50 in series [1] was more than 100 µM. Besides, the selectivity ratio in series [2] was more than 3.
For `COc1ccccc1-c1cnc(NC(=O)c2ccc(F)cc2)n1C` the same measures were more than 100 µM, more than 100 µM and more than 1.
For `CCCn1c(-c2ccc(OC)cc2)cnc1NC(=O)c1ccc(F)cc1` the same measures were 18 µM, more than 100 µM and more than 1.
With `Cn1c(-c2ccccc2)cnc1NC(=O)c1ccccc1`, the IC50 in the series on Leishmania donovani was 4.5 µM. The CC50 in series [1] is more than 100 µM. In addition, in series [2], the selectivity ratio was more than 22.
`COc1ccc(-c2cn(C)c(NC(=O)c3ccc(F)cc3)n2)cc1`: the IC50 with Leishmania donovani was more than 50 µM. In series [1], the CC50 is more than 50 µM. For the same compound, the selectivity ratio in series [2] was more than 1.

One may read the IC50 as the concentration that inhibits the measured activity by half. The term CC50 denotes the concentration at which the toxic effect on the cells reaches its halfway point.
